# Literature values as cited in patent US20240230688A1, “METHOD FOR DETERMINING PERSONALIZED OMEGA-3 DOSE” (SOCIETE DES PRODUITS NESTLE S.A., priority 2021, published 2024).
# Tested on: pregnant women
# Conditions: women who took supplement during pregnancy compared to those who did not
smiles,measurement,value
"CC/C=C\C/C=C\C/C=C\C/C=C\C/C=C\C/C=C\CCC(=O)O [DHA supplement, (4Z,7Z,10Z, 13Z, 16Z, 19Z)-4,7,10,13,16, 19-Docosahexaenoic acid]",less likely to have early preterm birth,42%
